Results: patent US10413594B2, “Conjugates of somatostatin analogues” (ProLynx LLC, priority 2013, dated 2019)
Where a name gives a salt, the structure may show the parent alone. Starred links: 1 amine or outer side, 2 acyl side, 3 side chain; linkers in the order of their positions; H or OH if unused. Non-standard residues stand in square brackets, D forms with d. Residues, ends and D or L forms follow the SMILES beside them. Groups on a side chain read outwards from the residue. *: point of attachment. Ethylenediamine = C(CN[*:2])N[*:1]; Hyp = O=C(O)[C@@H]1C[C@@H](O)CN1; Phg = N[C@H](C(=O)O)c1ccccc1; CO = O=C([*:1])[*:2]; Bn = c1ccc(C*)cc1

How the values were obtained:
[1] = In vivo pharmacokinetics after IV injection in cannulated rats; conditions: Sprague Dawley, rat, plasma, 56 mg/kg conjugate
Method: PK assays on the conjugates of Example 5 were performed on cannulated Sprague Dawley rats. […] Blood samples were collected at 0, 1, 2, 4, 8, 12, 24, 48, 72, and 120 hours. At each timepoint a 300 μL blood sample was added to 30 μL of a 1M citrate/0.1% Pluronic® F68 solution, pH 4.5 to lower the pH and remove coagulation factors to give plasma.
A portion of the plasma samples were precipitated by addition of 3 parts acetonitrile and centrifuged at 16000×g for 10 minutes. The samples were analyzed by HPLC for PEG-peptide conjugate and PEG-remnant concentrations. Concentrations were calculated by comparison of peak areas to a standard curve.
A portion of the releasable plasma samples was analyzed by LC/MSMS for free octreotide (MedPace).
The volume of distribution (100 mL/kg) is also in line with previous PEG conjugate, typically measured at the approximate blood volume of the rat (70 mL/kg).

[2] = subcutaneous administration; cited from earlier work
somatostatin receptor 5 = somatostatin receptor 5 (Homo sapiens, UniProt P35346); conditions: relative to other somatostatin analogs; cited from earlier work
Chain of somatostatin receptor 5 (P35346 whole entry): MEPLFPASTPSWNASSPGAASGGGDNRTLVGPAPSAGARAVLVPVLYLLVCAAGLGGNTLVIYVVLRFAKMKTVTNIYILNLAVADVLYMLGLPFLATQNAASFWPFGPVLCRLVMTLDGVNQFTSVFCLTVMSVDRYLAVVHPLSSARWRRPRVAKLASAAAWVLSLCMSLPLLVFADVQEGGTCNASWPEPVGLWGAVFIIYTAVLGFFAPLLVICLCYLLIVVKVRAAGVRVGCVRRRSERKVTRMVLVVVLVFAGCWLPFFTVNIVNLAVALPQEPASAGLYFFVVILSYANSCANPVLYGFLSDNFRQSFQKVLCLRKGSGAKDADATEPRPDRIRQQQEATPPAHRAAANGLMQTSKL

[3] = subcutaneous administration; cited from earlier work; remark: listed apart in the source

SMILES	half-life [1]	average half-life of elimination from plasma [2]	increased affinity to somatostatin receptor 5 than other somatostatin analogs (somatostatin receptor 5)	effective half-life [3]	volume of distribution [3]
C[C@@H](O)[C@@H]1NC(=O)[C@H](CCCCN)NC(=O)[C@@H](Cc2c[nH]c3ccccc23)NC(=O)[C@H](Cc2ccccc2)NC(=O)[C@@H](NC(=O)[C@H](N)Cc2ccccc2)CSSCC(C(=O)N[C@H](CO)[C@@H](C)O)NC1=O (relative stereo) [Octreotide, D-phenylalanyl-L-cysteinyl-L-phenylalanyl-D-tryptophyl-L-lysyl-L-threonyl-N-[2-hydroxy-1-(hydroxymethyl)propyl]-L-Cysteinamide, cyclic (2→7)-disulfide; [R—(R*,R*)]]	50 h	1.7 h			
NCCCC[C@@H]1NC(=O)[C@@H](Cc2c[nH]c3ccccc23)NC(=O)[C@H](c2ccccc2)NC(=O)[C@@H]2C[C@@H](OC(=O)NCCN)CN2C(=O)[C@H](Cc2ccccc2)NC(=O)[C@H](Cc2ccc(OCc3ccccc3)cc2)NC1=O [Pasireotide, (2-aminoethyl) carbamic acid (2R,5,8S,11S,14R,17S,19aS)-11-(4-aminobutyl)-5-benzyl-8-(4-benzyloxybenzyl)-14-(1H-indol-3ylmethyl)-4,7,10,13,16,19-hexaoxo-17-phenyloctadecahydro-3a,6,9,12,15,18-hexaazacyclopentacyclooctadecen-2-yl ester, di[(S)-2-aminosuccinic acid] salt] (cyclo([Hyp]([CO-Ethylenediamine])[Phg][dW]KY(Bn)F))			40 fold	approximately 12 h	> 100 L
